Converted amounts (≈) assume the structure as drawn. The source made the active and inactive calls. No cut-off for these calls is given here.
Tests used:
Rattus norvegicus [1] = experiment: Antithrombotic activity in FeCl2-induced Sprague-Dawley rat carotid artery thrombosis model assessed as reduction of thrombus weight at 10 mg/kg, po after 60 mins relative to vehicle-treated control; assay type: functional; set-up: scale not given: the % may be the effect or the level left
[2] = Clearance in dog at 0.2 mg/kg, po and 0.1 mg/kg, iv; assay type: ADME, organism-based, Canis lupus familiaris; details: in vivo
Rattus norvegicus [3] = experiment: Antithrombotic activity in iv dosed FeCl2-induced Sprague-Dawley rat vena cava thrombosis model assessed as reduction of thrombus weight after 60 mins; assay type: functional, organism-based
P2X purinoceptor 1 = target: T1, P2X purinoceptor 1 (Homo sapiens, UniProt P51575); experiment: Antagonist activity at P2X1 receptor in HEK293 cells assessed as alpha, beta-methylene ATP-induced calcium flux by FLIPR assay; assay type: cell-based
T1 sequence (P51575 whole entry): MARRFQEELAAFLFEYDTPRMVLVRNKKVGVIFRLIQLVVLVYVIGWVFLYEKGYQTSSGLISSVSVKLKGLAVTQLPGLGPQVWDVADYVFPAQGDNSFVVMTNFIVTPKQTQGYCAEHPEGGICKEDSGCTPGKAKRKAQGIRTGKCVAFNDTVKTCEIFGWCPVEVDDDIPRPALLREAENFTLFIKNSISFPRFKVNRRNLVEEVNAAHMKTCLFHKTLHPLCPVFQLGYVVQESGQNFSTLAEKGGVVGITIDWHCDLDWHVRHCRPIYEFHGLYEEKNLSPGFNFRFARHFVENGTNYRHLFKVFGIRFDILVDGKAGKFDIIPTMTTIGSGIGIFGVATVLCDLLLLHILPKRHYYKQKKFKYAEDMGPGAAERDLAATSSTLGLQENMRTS

[4] = Half life in rat at 0.5 mg/kg, iv administered as bolus dose and po; assay type: ADME, organism-based; set-up: dose 0.5 mg/kg, route oral; details: in vivo
Rattus norvegicus [5] = organism: Rattus norvegicus; experiment: Inhibition of rat sodium channel site-2 at 10 uM relative to control
[6] = Metabolic stability in human liver microsomes assessed as compound remaining after 10 mins; assay type: ADME; details: read-out: Stability
Rattus norvegicus [7] = experiment: Ex vivo antiplatelet activity in Sprague-Dawley rat assessed as inhibition of […] uM ADP-induced platelet aggregation at 10 mg/kg, po after 60 mins relative to vehicle-treated control; assay type: functional; details: 1 h
[8] = Fraction unbound in rat; assay type: ADME, organism-based; details: in vivo
Rattus norvegicus [9] = experiment: Antithrombotic activity in iv dosed FeCl2-induced Sprague-Dawley rat carotid artery thrombosis model assessed as increase in integrated blood flow measured over 60 mins; assay type: functional, organism-based
P2Y purinoceptor 1 [10] = target: T2, P2Y purinoceptor 1 (Homo sapiens, UniProt P47900); experiment: Displacement of [33P]-2MeS-ADP from human P2Y1 receptor expressed in HEK293 cells after 1 hr by scintillation counting analysis; assay type: cell-based
[11] = Clearance in rat at 0.5 mg/kg, iv administered as bolus dose; assay type: ADME, organism-based; set-up: dose 0.5 mg/kg, route intravenous; details: in vivo
Rattus norvegicus [12] = experiment: Induction of mesenteric bleeding time in Sprague-Dawley rat at 0.6 mg/kg and 2.25 mg/kg/hr, iv measured over 10 mins relative to vehicle-treated control; assay type: organism-based; details: in vivo
L-type calcium channel = L-type calcium channel (Rattus norvegicus, UniProt P22002+P27732+Q02485); experiment: Inhibition of rat L-type calcium channel at 10 uM relative to control
Rattus norvegicus [13] = experiment: Ex vivo antiplatelet activity in Sprague-Dawley rat assessed as inhibition of […] uM ADP-induced platelet aggregation at 0.2 mg/kg and 0.75 mg/kg/hr, iv after 60 mins relative to vehicle-treated control; assay type: functional
Rattus norvegicus [14] = experiment: Antithrombotic activity in FeCl2-induced Sprague-Dawley rat carotid artery thrombosis model assessed as reduction of thrombus weight at 0.6 mg/kg and 2.25 mg/kg/hr, iv after 60 mins relative to vehicle-treated control; assay type: functional; set-up: scale not given: the % may be the effect or the level left
[15] = Fraction unbound in rabbit; assay type: ADME, organism-based, Oryctolagus cuniculus; details: in vivo
Rattus norvegicus [16] = experiment: Antithrombotic activity in FeCl2-induced Sprague-Dawley rat vena cava thrombosis model assessed as reduction of thrombus weight at 0.2 mg/kg and 0.75 mg/kg/hr, iv after 60 mins relative to vehicle-treated control; assay type: functional; set-up: scale not given: the % may be the effect or the level left
Rattus norvegicus [17] = experiment: Antithrombotic activity in FeCl2-induced Sprague-Dawley rat vena cava thrombosis model assessed as reduction of thrombus weight at 0.6 mg/kg and 2.25 mg/kg/hr, iv after 60 mins relative to vehicle-treated control; assay type: functional; set-up: scale not given: the % may be the effect or the level left
Rattus norvegicus [18] = experiment: Induction of mesenteric bleeding time in iv dosed Sprague-Dawley rat measured over 10 mins; assay type: organism-based; details: in vivo
Rattus norvegicus [19] = experiment: Ex vivo antiplatelet activity in Sprague-Dawley rat assessed as inhibition of […] uM ADP-induced platelet aggregation at 0.6 mg/kg and 2.25 mg/kg/hr, iv after 60 mins relative to vehicle-treated control; assay type: functional
[20] = target: Opioid receptors; mu/kappa/delta (Homo sapiens, UniProt P41145+P41143+P35372); experiment: Inhibition of opioid receptor (unknown origin)
[21] = Fraction unbound in mouse; assay type: ADME, organism-based; details: in vivo
[22] = Total AUC in rat at 0.5 mg/kg, po; assay type: ADME, organism-based; set-up: time AUCmax, dose 0.5 mg/kg, route oral; details: in vivo
[23] = Aqueous solubility of the crystalline form of compound in phosphate buffer at pH 6.5; assay type: physicochemical
Rattus norvegicus [24] = experiment: Antithrombotic activity in iv dosed FeCl2-induced Sprague-Dawley rat carotid artery thrombosis model assessed as inhibition of arterial thrombus formation after 60 mins; assay type: functional, organism-based
Rattus norvegicus [25] = experiment: Antithrombotic activity in FeCl2-induced Sprague-Dawley rat carotid artery thrombosis model assessed as reduction of thrombus weight at 0.2 mg/kg and 0.75 mg/kg/hr, iv after 60 mins relative to vehicle-treated control; assay type: functional; set-up: scale not given: the % may be the effect or the level left
[26] = Volume of distribution at steady state in dog at 0.2 mg/kg, po and 0.1 mg/kg, iv; assay type: ADME, organism-based, Canis lupus familiaris; details: in vivo, read-out: Vdss
[27] = Volume of distribution at steady state in rat at 0.5 mg/kg, iv administered as bolus dose; assay type: ADME, organism-based; set-up: dose 0.5 mg/kg, route intravenous; details: in vivo, read-out: Vdss
[28] = Fraction unbound in dog; assay type: ADME, organism-based, Canis lupus familiaris; details: in vivo
[29] = Oral bioavailability in dog at 0.2 mg/kg; assay type: ADME, organism-based, Canis lupus familiaris; details: in vivo
Rattus norvegicus [30] = experiment: Antithrombotic activity in po dosed FeCl2-induced Sprague-Dawley rat carotid artery thrombosis model assessed as increase in integrated blood flow measured over 60 mins; assay type: functional, organism-based
Rattus norvegicus [31] = experiment: Induction of mesenteric bleeding time in Sprague-Dawley rat at 0.2 mg/kg and 0.75 mg/kg/hr, iv measured over 10 mins relative to vehicle-treated control; assay type: organism-based; details: in vivo
Rattus norvegicus [32] = experiment: Antithrombotic activity in FeCl2-induced Sprague-Dawley rat carotid artery thrombosis model assessed as integrated blood flow at 0.6 mg/kg and 2.25 mg/kg/hr, iv after 60 mins relative to vehicle-treated control; assay type: functional
HEK293 = experiment: Selectivity ratio of IC50 for P2X1 receptor in HEK293 cells to IC50 for P2Y1 receptor in washed human platelets; assay type: cell-based
Rattus norvegicus [33] = experiment: Ex vivo antiplatelet activity in Sprague-Dawley rat assessed as inhibition of […] uM ADP-induced platelet aggregation at 3 mg/kg, po after 60 mins relative to vehicle-treated control; assay type: functional; details: 1 h
Rattus norvegicus [34] = experiment: Antithrombotic activity in po dosed FeCl2-induced Sprague-Dawley rat carotid artery thrombosis model assessed as inhibition of arterial thrombus formation after 60 mins; assay type: functional, organism-based
[35] = Partition coefficient, log P of the compound at pH 7 by reversed-phase HPLC method; assay type: physicochemical; details: octanol/water
Rattus norvegicus [36] = experiment: Antithrombotic activity in FeCl2-induced Sprague-Dawley rat carotid artery thrombosis model assessed as prevention of vascular occlusion at 10 mg/kg, po after 60 mins; assay type: functional, organism-based; set-up: dose 10 mg/kg
P2Y purinoceptor 2 = P2Y purinoceptor 2 (Homo sapiens, UniProt P41231); experiment: Antagonist activity at P2Y2 receptor in human HeLa cells assessed as intracellular calcium mobilization after 10 mins by Fluo-4 AM staining-based FLIPR assay; assay type: functional, cell-based
[37] = Half life in dog at 0.2 mg/kg, po; assay type: ADME, organism-based, Canis lupus familiaris; set-up: dose 0.2 mg/kg, route oral; details: in vivo
[38] = Metabolic stability in rat liver microsomes assessed as compound remaining after 10 mins; assay type: ADME; details: read-out: Stability
P2Y purinoceptor 1 [39] = target: T2, P2Y purinoceptor 1; experiment: Antagonist activity at P2Y1 receptor in washed human platelets assessed as 1 uM 2-methylthio-ADP-induced calcium flux by FLIPR assay; assay type: functional
Rattus norvegicus [40] = experiment: Antithrombotic activity in FeCl2-induced Sprague-Dawley rat carotid artery thrombosis model assessed as prevention of vascular occlusion at 0.6 mg/kg and 2.25 mg/kg/hr, iv after 60 mins; assay type: functional, organism-based
Rattus norvegicus [41] = experiment: Antithrombotic activity in FeCl2-induced Sprague-Dawley rat carotid artery thrombosis model assessed as reduction of thrombus weight at 3 mg/kg, po after 60 mins relative to vehicle-treated control; assay type: functional; set-up: scale not given: the % may be the effect or the level left
[42] = Fraction unbound in human; assay type: ADME, organism-based; details: in vivo
P2Y purinoceptor 12 = P2Y purinoceptor 12 (Homo sapiens, UniProt Q9H244); experiment: Displacement of [33P]-2MeS-ADP from P2Y12 receptor (unknown origin) transfected in HEK293 cells after 1 hr by scintillation counting analysis; assay type: cell-based
[43] = Oral bioavailability in rat at 0.5 mg/kg; assay type: ADME, organism-based; details: in vivo
Rattus norvegicus [44] = experiment: Antithrombotic activity in FeCl2-induced Sprague-Dawley rat carotid artery thrombosis model assessed as integrated blood flow at 10 mg/kg, po after 60 mins relative to vehicle-treated control; assay type: functional

T2 sequence (P47900 whole entry): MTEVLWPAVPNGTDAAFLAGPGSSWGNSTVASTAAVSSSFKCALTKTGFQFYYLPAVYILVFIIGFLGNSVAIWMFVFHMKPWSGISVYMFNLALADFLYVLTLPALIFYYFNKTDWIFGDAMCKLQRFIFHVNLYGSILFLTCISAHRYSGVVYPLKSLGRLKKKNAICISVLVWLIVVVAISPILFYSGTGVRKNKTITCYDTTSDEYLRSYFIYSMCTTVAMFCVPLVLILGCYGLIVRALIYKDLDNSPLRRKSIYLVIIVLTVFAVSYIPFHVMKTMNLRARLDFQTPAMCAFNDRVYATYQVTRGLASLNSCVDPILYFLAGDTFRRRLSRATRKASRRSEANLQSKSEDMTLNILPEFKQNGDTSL
P2Y purinoceptor 12, sequence (Q9H244 whole entry): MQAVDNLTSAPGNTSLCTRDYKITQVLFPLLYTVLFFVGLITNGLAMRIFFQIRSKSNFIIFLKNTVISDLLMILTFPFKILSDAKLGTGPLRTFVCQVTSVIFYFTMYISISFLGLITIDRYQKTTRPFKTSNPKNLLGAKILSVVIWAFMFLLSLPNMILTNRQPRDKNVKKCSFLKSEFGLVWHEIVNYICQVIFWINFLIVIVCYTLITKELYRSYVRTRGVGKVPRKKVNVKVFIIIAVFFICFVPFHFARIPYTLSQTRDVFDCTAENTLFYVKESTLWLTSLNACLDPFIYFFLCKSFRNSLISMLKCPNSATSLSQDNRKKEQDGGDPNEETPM
P2Y purinoceptor 2, sequence (P41231 whole entry): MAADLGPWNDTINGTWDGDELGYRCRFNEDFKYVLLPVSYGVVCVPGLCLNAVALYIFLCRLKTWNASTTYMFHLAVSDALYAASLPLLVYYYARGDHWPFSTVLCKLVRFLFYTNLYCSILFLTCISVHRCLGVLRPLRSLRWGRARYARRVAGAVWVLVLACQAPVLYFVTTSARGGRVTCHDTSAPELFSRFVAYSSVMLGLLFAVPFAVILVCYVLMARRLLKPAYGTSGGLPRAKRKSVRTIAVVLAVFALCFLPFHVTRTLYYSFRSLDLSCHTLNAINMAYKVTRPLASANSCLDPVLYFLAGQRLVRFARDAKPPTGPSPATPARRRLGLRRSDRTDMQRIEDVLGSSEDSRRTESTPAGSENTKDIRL

## CC(C)(C)CN1CCC2(CC1)CN(c1ccccc1NC(=O)Nc1ccc(OC(F)(F)F)cc1)c1ccccc12
Rattus norvegicus [1]
  Activity: 64%
[2]
  clearance: 5.3 mL/min/kg
Rattus norvegicus [3]
  Activity: Dose-dependent effect
P2X purinoceptor 1
  IC50: 1600 nM
[4]
  half-life: 7.5 h
Rattus norvegicus [5]
  inhibition: 88%
[6]
  remaining at 10 min: 89%
Rattus norvegicus [7]
  inhibition in vivo at 10 mg/kg: -64%
[8]
  Fu: < 0.1%
Rattus norvegicus [9]
  Activity: Dose-dependent effect
P2Y purinoceptor 1 [10]
  Ki: 4.3 nM
[11]
  clearance: 9.1 mL/min/kg
Rattus norvegicus [12]
  fold change (FC): 2.3
L-type calcium channel
  inhibition at 10 µM: 78%
Rattus norvegicus [13]
  inhibition (INH): -30%
Rattus norvegicus [14]
  Activity: 66%
[15]
  Fu: 0.1%
Rattus norvegicus [16]
  Activity: -26%
Rattus norvegicus [17]
  Activity: -54%
Rattus norvegicus [18]
  Activity: Dose-dependent effect
Rattus norvegicus [19]
  inhibition (INH): -85%
[20]
  IC50: 2700 nM
[21]
  Fu: 0.2%
[22]
  AUC: 0.587 µM·h
[23]
  solubility: 4 µg/mL (≈ 7.24 µM)
Rattus norvegicus [24]
  inhibition: Dose-dependent effect
Rattus norvegicus [25]
  Activity: -41%
[26]
  Vd: 2.8 L/kg
[27]
  Vd: 2.8 L/kg
[28]
  Fu: 0.2%
[29]
  bioavailability: 55%
Rattus norvegicus [30]
  Activity: Dose-dependent effect
Rattus norvegicus [31]
  fold change (FC): 2.7
Rattus norvegicus [32]
  Activity: >95%
HEK293
  Ratio IC50: > 600
Rattus norvegicus [33]
  inhibition in vivo at 3 mg/kg: -48%
Rattus norvegicus [34]
  inhibition: Dose-dependent effect
[35]
  logP: > 6.2
Rattus norvegicus [36]
  Activity: Active
P2Y purinoceptor 2
  IC50: > 10000 nM
[37]
  half-life: 9.7 h
[38]
  remaining at 10 min: 87%
P2Y purinoceptor 1 [39]
  IC50: 2.5 nM
Rattus norvegicus [40]
  Activity: Active
Rattus norvegicus [41]
  Activity: -45%
[42]
  Fu: < 0.1%
P2Y purinoceptor 12
  IC50: > 20000 nM
[43]
  bioavailability: 32%
Rattus norvegicus [44]
  Activity: >95%
